Assays:
[1] = target: T1, ERK2 kinase (Homo sapiens, UniProt P28482); assay: ERK2 kinase inhibition (ADP-Glo); format: biochemical; conditions: ADP-Glo kit, 20 minutes reaction at room temperature
T1 construct: purchased Promega V1961
From the text: ERK2 kinase (Promega, catalog No. V1961), RET (V804M), Active (Signalchem, catalog No, R02-12GG), ADP-Glo™ kit (Promega, catalog No. V9102), GDC-0994 (MCE, catalog No. HY-15947), ATP (Promega, catalog No. V910B), DMSO (Sigma, catalog No. D8418), DTT (Invitrogen, catalog No. P2325), 384-well plate (Greiner, catalog No. 784075), polypropylene 384-well plate (Labcyte, catalog No. P-05525-BC), polypropylene 96-well plate (Nunc, catalog No. 249944), plate shaker (Thermo, catalog No. 4625-1 CECN/THZ Q), centrifuge (Eppendorf, catalog No. 5810R), multilabel ELISA reader Envision 2104 multi-label Reader (PerkinElmer, catalog No. 74785), Echo acoustic dispenser (Labcyte, catalog No. 550).
Compound formulation: The test compounds were dissolved in DMSO to prepare a 10 mM stock solution. Then, the stock solution was diluted 10 times with a 3-fold gradient. When addition, 10-fold dilution was made with buffer solution.
ERK2 kinase assay: In 1× kinase buffer solution, ERK2 kinase was mixed with pre-formulated and diluted compounds of different concentrations for 10 minutes in duplicate for each concentration. The corresponding substrate and ATP were added thereto, and reacted at room temperature for 20 minutes (both a negative and a positive control were set, wherein the negative is blank control, and the positive control is GDC-0994). Detection reagent was added after the reaction is complete (reagent in ADP-Glo™ kit), and after 40 minutes of incubation at room temperature, Envision 2104 multi-label Reader ELISA reader was used for detection of enzyme activities under the presence of compounds of the present disclosure with different concentrations, and the inhibitory activities of different concentrations of compounds on enzyme activity were calculated. GraphPad Prism 6.0 software was used for data analysis, nonlinear curve regression was used to fit the data to get the dose-response curve, thereby IC50 values were calculated.

[2] = system: phospho-p90RSK in A375 cell line; assay: A375 cell assay (phospho-p90RSK sandwich ELISA); format: cell-based; conditions: Homo sapiens, A-375; inhibition of phospho-p90RSK, A375 cells (BRAF V600E), 4 hours incubation
Description: The cells in the logarithmic growth phase were taken and the trypan blue exclusion method was used to detect the cell viability to ensure that the cell viability is above 90%. The cell concentration was adjusted, and 150 μL cell suspension was added to a 96-well plate, which was incubated at 37° C., 5% CO2 for 16 h. The maximum concentration of the drug to be tested was 10 μM, which was diluted into 10 concentrations with a 3-fold gradient dilution, 50 μL drug solution was added to each well of the 96-well plate in duplicate, and incubation was continued for 4 hours. After removing the medium, 0.2 ml cell lysis solution and […] were added to each well, which was incubated on ice for 30 mm, and centrifuged for 10 min at 4° C. to afford cell lysis solution. PathScan®Phospho-p90RSK (Thr359) Sandwich ELISA Kit (CST, catalog No. 91959C) was used for detecting the inhibitory rate of the compounds of the present disclosure on phospho-p90RSK, to each well 100 μL cell lysis solution was added, and incubated at 4° C. overnight. The plate was washed, added with 100 μL reconstituted Detection Antibody, and incubated at 37° C. for 1 h. The plate was washed, added with 100 μL reconstituted HRP-Linked secondary antibody, and incubated at 37° C. for 30 min. The plate was washed, added with 100 μL TMB Substrate, and after incubating at 25° C. for 30 min, 100 μL STOP Solution was added, and EnVision (Perkin Elmer 2104) was used to detect fluorescence value, and inhibitory rates under the effect of different concentrations of compounds were calculated. The calculation of IC50 was carried out using Prism Graphpad 8.0, software.
Phospho-p90RSK cell assay was conducted in A375 cell line, which has human malignant melanoma with BRAF V600E mutation that upregulates the MAPK pathway, and therefore has increased endogenous levels of phospho-ERK and phospho-p90RSK.

T1 sequence (P28482 whole entry): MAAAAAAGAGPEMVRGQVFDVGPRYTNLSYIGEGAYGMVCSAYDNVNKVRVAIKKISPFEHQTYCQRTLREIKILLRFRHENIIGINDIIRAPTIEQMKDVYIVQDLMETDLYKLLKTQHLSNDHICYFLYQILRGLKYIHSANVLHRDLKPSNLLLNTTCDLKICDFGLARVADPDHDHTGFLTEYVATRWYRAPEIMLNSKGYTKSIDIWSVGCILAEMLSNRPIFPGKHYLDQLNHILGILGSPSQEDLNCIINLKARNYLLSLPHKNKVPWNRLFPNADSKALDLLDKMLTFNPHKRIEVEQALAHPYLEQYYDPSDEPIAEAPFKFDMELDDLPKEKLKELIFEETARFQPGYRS

## COC[C@H]1Cn2cc(-c3nc(Nc4ccnn4C)ncc3C)nc2C(=O)N1Cc1ccc(F)c(F)c1 [AZD0364, (R)-7-(3,4-difluorobenzyl)-6-(methoxymethyl)-2-(5-methyl-2-((1-methyl-1H-pyrazol-5-yl)amino)pyrimidin-4-yl)-6,7-dihydroimidazo[1,2-a]pyrazin-8(5H)-one, reference compound]
[1]
  IC50: 4.01 nM
[2]
  IC50: 38.7 nM

## [2H]C([2H])([2H])OC[C@H]1Cn2cc(-c3nc(Nc4ccnn4C)ncc3C)nc2C(=O)N1Cc1ccc(F)c(F)c1 [Compound I-4-1, (R)-7-(3,4-difluorobenzyl)-6-((methoxy-d3)-methyl)-2-(5-methyl-2-((1-methyl-1H-pyrazol-5-yl)amino)pyrimidin-4-yl)-6,7-dihydroimidazo[1,2-a]pyrazin-8(5H)-one]
[1]
  IC50: 3.09 nM
[2]
  IC50: 24.9 nM

## [2H]C([2H])([2H])n1nccc1Nc1ncc(C)c(-c2cn3c(n2)C(=O)N(Cc2ccc(F)c(F)c2)[C@@H](COC)C3)n1 [Compound I-1, (R)-7-(3,4-difluorobenzyl)-6-(methoxymethyl)-2-(5-methyl-2-((1-(methyl-d3)-1H-pyrazol-5-yl)amino)pyrimidin-4-yl)-6,7-dihydroimidazo[1,2-a]pyrazin-8(5H)-one]
[2]
  IC50: 30.1 nM

## [2H]C([2H])(c1ccc(F)c(F)c1)N1C(=O)c2nc(-c3nc(Nc4ccnn4C([2H])([2H])[2H])ncc3C)cn2C[C@@H]1COC [Compound I-3, (R)-7-((3,4-difluorophenyl)methyl-d2)-6-(methoxymethyl)-2-(5-methyl-2-((1-(methyl-d3)-1H-pyrazol-5-yl)amino)pyrimidin-4-yl)-6,7-dihydroimidazo[1,2-a]pyrazin-8(5H)-one]
[1]
  IC50: 3.31 nM
[2]
  IC50: 34.6 nM

## [2H]C([2H])([2H])OC[C@H]1Cn2cc(-c3nc(Nc4ccnn4C([2H])([2H])[2H])ncc3C)nc2C(=O)N1Cc1ccc(F)c(F)c1 [Compound I-5-1, (R)-7-(3,4-difluorobenzyl)-6-((methoxy-d3)-methyl)-2-(5-methyl-2-((1-(methyl-d3)-1H-pyrazol-5-yl)amino)pyrimidin-4-yl)-6,7-dihydroimidazo[1,2-a]pyrazin-8(5H)-one]
[1]
  IC50: 2.75 nM
[2]
  IC50: 29.6 nM
